Laboratory results from PMC8776995 (Frontiers in Chemistry, 2022).
Values joined by “and” are separate entries in the source; they are usually repeats but may differ in a detail not shown here. Equal entries are not always repeated. One block for each compound: values may come before it.

What was measured:
H1975 cells = assay: CCK-8 antiproliferation assay, H1975; settings: for IC50: NCI-H1975, 48 h, read-out: IC50 (μM) H1975, CCK-8, 48 h, average ± SD of three independent experiments; for Inhibitory efficacy: H1975 cells
H460 cells = assay: CCK-8 antiproliferation assay, H460; settings: for Inhibitory efficacy: H460 cells; for IC50: NCI-H460, 48 h, read-out: IC50 (μM) H460, CCK-8, 48 h, average ± SD of three independent experiments
A549 cells = assay: CCK-8 antiproliferation assay, A549; settings: for Inhibitory efficacy: A549 cells; for IC50: A549, 48 h, read-out: IC50 (μM) A549, CCK-8, 48 h, average ± SD of three independent experiments
PC-9 cells = assay: CCK-8 antiproliferation assay, PC-9; settings: for IC50: PC-9, 48 h, read-out: IC50 (μM) PC-9; for inhibition at 1 µM: PC-9, read-out: Inhibitory efficacy, PC-9, 1uM, single repeats (Repeat 1-3), given as fraction; for inhibition at 2 µM: PC-9, read-out: Inhibitory efficacy, PC-9, 2uM, single repeats (Repeat 1-3), given as fraction; for inhibition at 8 µM: PC-9, read-out: Inhibitory efficacy, PC-9, 8uM, single repeats (Repeat 1-3), given as fraction; for inhibition at 16 µM: PC-9, read-out: Inhibitory efficacy, PC-9, 16uM, single repeats (Repeat 1-3), given as fraction; for Inhibitory efficacy: single repeats (Repeat 1-3), given as fraction
wild-type EGFR = wild-type EGFR (Homo sapiens, UniProt P00533); assay: EGFR kinase assay (ELISA); settings: for IC50: IC50 (μM) EGFR, ELISA, 3 μmol/L ATP; for inhibition at 100 fM: concentration 0.0001 nM (reference for normalisation); for A450: raw ELISA absorbance
wild-type EGFR, sequence (P00533 25-1210): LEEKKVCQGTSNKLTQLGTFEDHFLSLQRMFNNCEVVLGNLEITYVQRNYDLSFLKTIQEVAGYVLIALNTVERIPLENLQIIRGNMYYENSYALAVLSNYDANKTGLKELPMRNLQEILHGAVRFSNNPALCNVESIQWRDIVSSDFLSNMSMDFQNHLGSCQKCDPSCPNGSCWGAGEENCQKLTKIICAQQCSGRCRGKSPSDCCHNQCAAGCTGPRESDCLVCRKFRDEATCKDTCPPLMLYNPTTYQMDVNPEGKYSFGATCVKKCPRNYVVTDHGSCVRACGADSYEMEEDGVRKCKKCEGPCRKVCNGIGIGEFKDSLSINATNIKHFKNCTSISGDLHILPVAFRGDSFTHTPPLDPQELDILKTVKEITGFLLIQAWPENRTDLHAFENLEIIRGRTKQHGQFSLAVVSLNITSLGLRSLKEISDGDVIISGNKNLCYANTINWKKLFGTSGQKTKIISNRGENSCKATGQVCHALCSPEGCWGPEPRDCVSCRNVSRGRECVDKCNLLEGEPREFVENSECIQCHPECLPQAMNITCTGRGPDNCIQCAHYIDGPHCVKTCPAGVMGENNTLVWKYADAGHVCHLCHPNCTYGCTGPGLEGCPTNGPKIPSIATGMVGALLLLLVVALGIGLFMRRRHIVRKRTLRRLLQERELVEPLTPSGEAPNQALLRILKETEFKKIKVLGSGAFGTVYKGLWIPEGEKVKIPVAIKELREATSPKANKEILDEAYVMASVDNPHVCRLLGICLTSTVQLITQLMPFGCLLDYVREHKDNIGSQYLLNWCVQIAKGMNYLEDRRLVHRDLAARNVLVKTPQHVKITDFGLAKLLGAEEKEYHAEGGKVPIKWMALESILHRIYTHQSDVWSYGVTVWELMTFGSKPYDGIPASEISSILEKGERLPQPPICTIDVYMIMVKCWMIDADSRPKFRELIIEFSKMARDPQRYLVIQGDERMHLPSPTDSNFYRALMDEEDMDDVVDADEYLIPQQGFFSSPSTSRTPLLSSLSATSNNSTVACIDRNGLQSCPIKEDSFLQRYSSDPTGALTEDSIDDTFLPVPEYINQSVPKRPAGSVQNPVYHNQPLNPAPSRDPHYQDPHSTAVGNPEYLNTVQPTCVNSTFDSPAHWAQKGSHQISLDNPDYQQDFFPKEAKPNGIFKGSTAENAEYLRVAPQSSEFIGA

[1] = 2uM, given as fraction, Repeat 1-3
[2] = 16uM, given as fraction, Repeat 1-3
[3] = Homo sapiens, NCI-H460, read-out: Inhibitory efficacy, H460 cells, 2uM, given as fraction, Repeat 1-3
[4] = 1uM, given as fraction, Repeat 1-3
[5] = 4uM, given as fraction, Repeat 1-3
[6] = Homo sapiens, A549, read-out: Inhibitory efficacy, A549 cells, 4uM, given as fraction, Repeat 1-3
[7] = Homo sapiens, A549, read-out: Inhibitory efficacy, A549 cells, 16uM, given as fraction, Repeat 1-3
[8] = concentration 0.3 nM, one value per replicate column
[9] = concentration 0.3 nM, one value per replicate column, 0.0003 µM
[10] = concentration 3 nM, one value per replicate column
[11] = concentration 3 nM, one value per replicate column, 0.003 µM
[12] = concentration 30 nM, one value per replicate column
[13] = concentration 30 nM, one value per replicate column, 0.03 µM
[14] = concentration 300 nM, one value per replicate column
[15] = concentration 300 nM, one value per replicate column, 0.3 µM
[16] = concentration 3000 nM, one value per replicate column
[17] = concentration 3000 nM, one value per replicate column, 3 µM
[18] = concentration 30000 nM, one value per replicate column
[19] = concentration 30000 nM, one value per replicate column, 30 µM
[20] = 8uM, given as fraction, Repeat 1-3

IC50 (H1975 cells; Homo sapiens): > 100 µM
IC50 (H460 cells; Homo sapiens): > 100 µM
IC50 (A549 cells; Homo sapiens): > 100 µM
melting point: 106 to 109 °C
IC50 (PC-9 cells; Homo sapiens): 23.5 ± 10.2 µM
IC50 (wild-type EGFR): 28.1 µM
inhibition at 100 fM (wild-type EGFR; one value per replicate column): 0%
inhibition at 30 pM (wild-type EGFR; concentration 0.03 nM, one value per replicate column): 0%
inhibition at 0.0003 µM (wild-type EGFR; [8]): 1.06%
Inhibition (wild-type EGFR; [9]): 0.9259
inhibition at 0.003 µM (wild-type EGFR; [10]): 2.12%
Inhibition (wild-type EGFR; [11]): 3.333
inhibition at 0.03 µM (wild-type EGFR; [12]): 6.35%
Inhibition (wild-type EGFR; [13]): 7.222
inhibition at 0.3 µM (wild-type EGFR; [14]): 6.7%
Inhibition (wild-type EGFR; [15]): 10.3704
inhibition at 3 µM (wild-type EGFR; [16]): 8.29%
Inhibition (wild-type EGFR; [17]): 15.5556
inhibition at 30 µM (wild-type EGFR; [18]): 52.7%
Inhibition (wild-type EGFR; [19]): 51.6667
A450 (wild-type EGFR; concentration 0.0001 nM): 0.772 and 0.745
A450 (wild-type EGFR; concentration 0.03 nM): 0.772 and 0.745
A450 (wild-type EGFR; concentration 0.3 nM): 0.766 and 0.74
A450 (wild-type EGFR; concentration 3 nM): 0.76 and 0.727
A450 (wild-type EGFR; concentration 30 nM): 0.736 and 0.706
A450 (wild-type EGFR; concentration 300 nM): 0.734 and 0.689
A450 (wild-type EGFR; concentration 3000 nM): 0.725 and 0.661
A450 (wild-type EGFR; concentration 30000 nM): 0.473 and 0.466
Structure (SMILES): COCCOc1cc2ncnc(Nc3cccc(-c4cn(-c5ccc(OC)c(OC)c5)nn4)c3)c2cc1OCCOC [e19, N-(3-(1-(3,4-dimethoxyphenyl)-1H-1,2,3-triazol-4-yl)phenyl)-6,7-bis(2-methoxyethoxy)quinazolin-4-amine]
Inhibitory efficacy (H460 cells; [1]): 0.2578 and 0.3115
Inhibitory efficacy (H460 cells; [2]): 0.424 and 0.3358
inhibition at 2 µM (H460 cells; [3]): 32.2%
inhibition at 16 µM (H460 cells; Homo sapiens, NCI-H460, read-out: Inhibitory efficacy, H460 cells, 16uM, given as fraction, Repeat 1-3): 33.1%
Inhibitory efficacy (A549 cells; [4]): 0.1948 and 0.1677
Inhibitory efficacy (A549 cells; [1]): 0.2727 and 0.2237
Inhibitory efficacy (A549 cells; [5]): 0.2792 and 0.2418
Inhibitory efficacy (A549 cells; [2]): 0.2527 and 0.2605
inhibition at 1 µM (A549 cells; Homo sapiens, A549, read-out: Inhibitory efficacy, A549 cells, 1uM, given as fraction, Repeat 1-3): 21.2%
inhibition at 2 µM (A549 cells; Homo sapiens, A549, read-out: Inhibitory efficacy, A549 cells, 2uM, given as fraction, Repeat 1-3): 23.7%
inhibition at 4 µM (A549 cells; [6]): 19.7%
inhibition at 16 µM (A549 cells; [7]): 26.2%
inhibition at 1 µM (PC-9 cells; Homo sapiens): 21.9%
inhibition at 2 µM (PC-9 cells; Homo sapiens): 32.9%
inhibition at 8 µM (PC-9 cells; Homo sapiens): 35.7%
inhibition at 16 µM (PC-9 cells; Homo sapiens): 49.7%
Inhibitory efficacy (PC-9 cells; PC-9, 1uM, 1 µM): 0.1694 and 0.3158
Inhibitory efficacy (PC-9 cells; PC-9, 2uM, 2 µM): 0.2911 and 0.3553
Inhibitory efficacy (PC-9 cells; PC-9, 4uM, 4 µM): 0.4984 and 0.2516 and 0.3668
Inhibitory efficacy (PC-9 cells; PC-9, 8uM, 8 µM): 0.4737 and 0.4424
Inhibitory efficacy (PC-9 cells; PC-9, 16uM, 16 µM): 0.4062 and 0.4457

IC50 (H1975 cells; Homo sapiens): 15.7 ± 2.76 µM
IC50 (H460 cells; Homo sapiens): 9.08 ± 2.81 µM
IC50 (A549 cells; Homo sapiens): 11.8 ± 1.7 µM
melting point: 93 to 96 °C
IC50 (PC-9 cells; Homo sapiens): 11.6 ± 3.64 µM
IC50 (wild-type EGFR): 0.32 µM
inhibition at 100 fM (wild-type EGFR; one value per replicate column): 0%
Inhibition (wild-type EGFR; concentration 0.03 nM, one value per replicate column, 3e-05 µM): 2.548 and 6.494
inhibition at 0.0003 µM (wild-type EGFR; [8]): 10.8%
Inhibition (wild-type EGFR; [9]): 7.792
inhibition at 0.003 µM (wild-type EGFR; [10]): 31.8%
Inhibition (wild-type EGFR; [11]): 24.6753
inhibition at 0.03 µM (wild-type EGFR; [12]): 31.8%
Inhibition (wild-type EGFR; [13]): 27.2727
inhibition at 0.3 µM (wild-type EGFR; [14]): 49%
Inhibition (wild-type EGFR; [15]): 35.7143
inhibition at 3 µM (wild-type EGFR; [16]): 63.7%
Inhibition (wild-type EGFR; [17]): 56.4935
inhibition at 30 µM (wild-type EGFR; [18]): 97.5%
Inhibition (wild-type EGFR; [19]): 98.0519
A450 (wild-type EGFR; concentration 0.0001 nM): 0.404 and 0.396
A450 (wild-type EGFR; concentration 0.03 nM): 0.4 and 0.386
A450 (wild-type EGFR; concentration 0.3 nM): 0.387 and 0.384
A450 (wild-type EGFR; concentration 3 nM): 0.354 and 0.358
A450 (wild-type EGFR; concentration 30 nM): 0.354
A450 (wild-type EGFR; concentration 300 nM): 0.327 and 0.341
A450 (wild-type EGFR; concentration 3000 nM): 0.304 and 0.309
A450 (wild-type EGFR; concentration 30000 nM): 0.251 and 0.245
Structure (SMILES): COCCOc1cc2ncnc(Nc3cccc(-c4cn(Cc5ccccc5I)nn4)c3)c2cc1OCCOC [e2, [6,7-Bis-(2-methoxy-ethoxy)-quinazolin-4-yl]-{3-[1-(2-iodo-benzyl)-1H-[1,2,3]triazol-4-yl]-phenyl}-amine]
Inhibitory efficacy (H1975 cells; [20]): 0.3905 and 0.2825
Inhibitory efficacy (H1975 cells; [2]): 0.5504 and 0.4649
inhibition at 8 µM (H1975 cells; Homo sapiens, NCI-H1975, read-out: Inhibitory efficacy, H1975 cells, 8uM, given as fraction, Repeat 1-3): 37.6%
inhibition at 16 µM (H1975 cells; Homo sapiens, NCI-H1975, read-out: Inhibitory efficacy, H1975 cells, 16uM, given as fraction, Repeat 1-3): 48.4%
Inhibitory efficacy (H460 cells; [4]): 0.124 and 0.2238
Inhibitory efficacy (H460 cells; [1]): 0.2881 and 0.2336
Inhibitory efficacy (H460 cells; [5]): 0.2321 and 0.3138
Inhibitory efficacy (H460 cells; [20]): 0.5164 and 0.5844
inhibition at 1 µM (H460 cells; Homo sapiens, NCI-H460, read-out: Inhibitory efficacy, H460 cells, 1uM, given as fraction, Repeat 1-3): 11.6%
inhibition at 2 µM (H460 cells; [3]): 33.4%
inhibition at 4 µM (H460 cells; Homo sapiens, NCI-H460, read-out: Inhibitory efficacy, H460 cells, 4uM, given as fraction, Repeat 1-3): 16%
inhibition at 8 µM (H460 cells; Homo sapiens, NCI-H460, read-out: Inhibitory efficacy, H460 cells, 8uM, given as fraction, Repeat 1-3): 46.6%
Inhibitory efficacy (A549 cells; [5]): 0.4029 and 0.476
Inhibitory efficacy (A549 cells; [20]): 0.4092 and 0.465
Inhibitory efficacy (A549 cells; [2]): 0.5413 and 0.5397
inhibition at 4 µM (A549 cells; [6]): 29.4%
inhibition at 8 µM (A549 cells; Homo sapiens, A549, read-out: Inhibitory efficacy, A549 cells, 8uM, given as fraction, Repeat 1-3): 41.8%
inhibition at 16 µM (A549 cells; [7]): 50.4%
inhibition at 1 µM (PC-9 cells; Homo sapiens): 7.63%
inhibition at 2 µM (PC-9 cells; Homo sapiens): 20.6%
inhibition at 4 µM (PC-9 cells; Homo sapiens, PC-9, read-out: Inhibitory efficacy, PC-9, 4uM, single repeats (Repeat 1-3), given as fraction): 28.9%
inhibition at 8 µM (PC-9 cells; Homo sapiens): 36.1%
inhibition at 16 µM (PC-9 cells; Homo sapiens): 49.1%
Inhibitory efficacy (PC-9 cells; PC-9, 1uM, 1 µM): 0.07634 and 0.0877
Inhibitory efficacy (PC-9 cells; PC-9, 2uM, 2 µM): 0.1331 and 0.1085
Inhibitory efficacy (PC-9 cells; PC-9, 4uM, 4 µM): 0.3461 and 0.3328
Inhibitory efficacy (PC-9 cells; PC-9, 8uM, 8 µM): 0.365 and 0.4549
Inhibitory efficacy (PC-9 cells; PC-9, 16uM, 16 µM): 0.6025 and 0.6224
